# From patent publication US12509431B2, “1,4-dihydroquinazolinone compounds and uses thereof” (Edgewise Therapeutics, Inc., priority 2022, dated 2025)
# Experiments:
# Type in all cases: biochemical
# Details in all cases: Table 8
# [1] = system: Rabbit Skeletal myofibrils (rabbit psoas muscle); assay: Myofibril ATPase assay (PK/LDH NADH-coupled), skeletal myofibrils
# In short: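 ATPase rate taken as linear-regression slope of A340 (NADH depletion through PK/LDH coupling) over a 75 min kinetic read, with psoas-derived rabbit skeletal myofibrils at pH 7.0. Four-parameter fits of vehicle-normalized activity give EC25 and, where reached, EC50.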
# [2] = target: T1, Porcine Ventricle myofibrils (left ventricle of Yucatan minipigs) (Sus scrofa, UniProt P79293); assay: Myofibril ATPase assay (PK/LDH NADH-coupled), ventricle myofibrils
# T1 construct: Myofibrils from porcine cardiac muscle was isolated from the left ventricle of Yucatan minipigs; tissue Exemplar Genetics; host or cells: left ventricle of Yucatan minipigs
# In short: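 NADH depletion (A340) coupled through pyruvate kinase/lactate dehydrogenase reports ATPase rate of porcine left-ventricle myofibrils over 75 min kinetic reads. Regression slopes, vehicle-normalized, fitted by 4-parameter logistic give EC25 and, where available, EC50.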
# Porcine Atria myofibrils = assay: Myofibril ATPase assay (PK/LDH NADH-coupled), atria myofibrils
# In short: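 Values are EC25% (and, for inhibitors, EC50%) from 4-parameter logistic fits of activity normalized to vehicle wells. Rates came from linear regression of 340 nm kinetic reads (every 1.5-2 min, 75 min) of NADH-coupled ATP turnover by porcine atria myofibrils.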
# T1 sequence (P79293 whole entry): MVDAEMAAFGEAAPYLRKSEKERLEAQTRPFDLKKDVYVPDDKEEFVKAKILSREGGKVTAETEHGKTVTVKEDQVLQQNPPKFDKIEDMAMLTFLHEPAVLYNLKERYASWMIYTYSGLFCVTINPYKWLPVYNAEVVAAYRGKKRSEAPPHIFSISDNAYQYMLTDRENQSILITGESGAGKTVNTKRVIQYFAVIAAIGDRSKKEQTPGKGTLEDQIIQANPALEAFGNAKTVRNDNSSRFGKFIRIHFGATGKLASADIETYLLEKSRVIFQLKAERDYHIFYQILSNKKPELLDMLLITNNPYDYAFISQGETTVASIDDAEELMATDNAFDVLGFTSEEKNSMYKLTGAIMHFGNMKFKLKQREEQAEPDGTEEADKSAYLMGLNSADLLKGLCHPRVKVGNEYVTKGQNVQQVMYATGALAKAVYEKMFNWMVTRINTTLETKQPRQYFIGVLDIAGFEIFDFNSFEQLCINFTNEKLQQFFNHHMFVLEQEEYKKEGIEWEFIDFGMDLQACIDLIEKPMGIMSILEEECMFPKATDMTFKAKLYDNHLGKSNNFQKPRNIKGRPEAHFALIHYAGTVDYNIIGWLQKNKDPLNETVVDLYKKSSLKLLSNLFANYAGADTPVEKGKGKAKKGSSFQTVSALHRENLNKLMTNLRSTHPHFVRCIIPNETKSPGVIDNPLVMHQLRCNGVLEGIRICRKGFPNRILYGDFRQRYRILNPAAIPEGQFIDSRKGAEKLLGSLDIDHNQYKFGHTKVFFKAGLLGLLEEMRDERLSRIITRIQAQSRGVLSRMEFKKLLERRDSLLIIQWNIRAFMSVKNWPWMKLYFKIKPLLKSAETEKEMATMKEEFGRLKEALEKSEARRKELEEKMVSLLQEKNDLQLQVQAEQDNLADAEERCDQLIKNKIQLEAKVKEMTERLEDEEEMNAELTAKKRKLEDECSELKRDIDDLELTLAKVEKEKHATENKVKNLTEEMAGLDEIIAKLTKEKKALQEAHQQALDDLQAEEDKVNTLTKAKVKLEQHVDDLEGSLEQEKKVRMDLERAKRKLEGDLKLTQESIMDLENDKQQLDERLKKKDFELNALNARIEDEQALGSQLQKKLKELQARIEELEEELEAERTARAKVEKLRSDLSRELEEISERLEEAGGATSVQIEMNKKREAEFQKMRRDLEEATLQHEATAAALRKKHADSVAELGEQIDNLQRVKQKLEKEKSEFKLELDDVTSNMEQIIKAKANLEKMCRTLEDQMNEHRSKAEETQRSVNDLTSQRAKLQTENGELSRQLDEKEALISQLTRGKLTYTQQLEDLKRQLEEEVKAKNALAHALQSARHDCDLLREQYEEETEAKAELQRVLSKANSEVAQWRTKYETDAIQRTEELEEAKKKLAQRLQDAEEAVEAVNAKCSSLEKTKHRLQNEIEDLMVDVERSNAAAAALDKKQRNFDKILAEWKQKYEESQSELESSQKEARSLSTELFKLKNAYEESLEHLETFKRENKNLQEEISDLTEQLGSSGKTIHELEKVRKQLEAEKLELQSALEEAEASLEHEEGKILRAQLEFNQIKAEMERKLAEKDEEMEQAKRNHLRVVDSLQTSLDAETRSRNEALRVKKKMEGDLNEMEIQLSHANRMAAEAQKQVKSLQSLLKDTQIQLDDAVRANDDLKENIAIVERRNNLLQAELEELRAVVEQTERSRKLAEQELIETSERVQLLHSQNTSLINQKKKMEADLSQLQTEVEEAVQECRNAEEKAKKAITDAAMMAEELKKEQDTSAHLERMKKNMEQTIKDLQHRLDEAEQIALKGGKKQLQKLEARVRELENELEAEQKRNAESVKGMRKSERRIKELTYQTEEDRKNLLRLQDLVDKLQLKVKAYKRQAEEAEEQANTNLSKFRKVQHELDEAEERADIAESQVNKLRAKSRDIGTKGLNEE
Rabbit Psoas IC25 [1] [µM],Porcine Ventricle IC25 [2] [µM],Porcine Atria IC25 (Porcine Atria myofibrils) [µM],SMILES
0.3154,4.311,0.36,"C[C@H](NC(=O)CN1Cc2c(ccc(C#N)c2F)NC1=O)c1ccc(F)cc1F [Compound B160, 2-(6-Cyano-5-fluoro-2-oxo-1,4-dihydroquinazolin-3-yl)-N-[(1S)-1-(2,4-difluorophenyl)ethyl]acetamide]"
1.295,45.8,4.15,C[C@H](NC(=O)CN1C(=O)Nc2ccccc2[C@H]1C)c1ncc(F)cc1F [Compound B161]
0.7039,100,52.14,C[C@H](NC(=O)CN1C(=O)Nc2ccccc2[C@@H]1C)c1ncc(F)cc1F [Compound B162]
0.4728,31.68,2.08,C[C@@H](NC(=O)CN1C(=O)Nc2ccc(F)cc2C12CC2)c1ncc(F)cc1F [Compound B163]
0.0273,0.3444,0.10,C[C@H](NC(=O)CN1C(=O)Nc2ccc(F)cc2C12CC2)c1ncc(F)cc1F [Compound B164]
100,100,17.36,C[C@@H]1c2ccccc2NC(=O)N1CC(=O)N[C@@H](CO)c1ncc(F)cc1F [Compound B165]
6.966,100,51.60,C[C@H]1c2ccccc2NC(=O)N1CC(=O)N[C@@H](CO)c1ncc(F)cc1F [Compound B166]
100,100,100.00,C[C@@H](C(=O)N[C@H](CO)c1ncc(F)cc1F)N1Cc2c(Cl)cccc2NC1=O [Compound B167]
100,100,100.00,C[C@H](C(=O)N[C@H](CO)c1ncc(F)cc1F)N1Cc2c(Cl)cccc2NC1=O [Compound B168]
0.3955,1.354,0.15,C[C@@H](C(=O)N[C@@H](CO)c1ncc(F)cc1F)N1Cc2c(Cl)cccc2NC1=O [Compound B169]
9.578,31.8,2.85,C[C@H](C(=O)N[C@@H](CO)c1ncc(F)cc1F)N1Cc2c(Cl)cccc2NC1=O [Compound B170]
7.545,100,19.79,C[C@@H](NC(=O)CN1Cc2cc(F)ccc2NC1=O)c1ccc(C#N)cn1 [Compound B171]
100,100,100.00,C[C@@H](NC(=O)CN1Cc2cc(F)ccc2NC1=O)c1ncccc1F [Compound B173]
83,100,46.54,C[C@H](NC(=O)CN1Cc2cc(F)ccc2NC1=O)c1ncccc1F [Compound B174]
100,100,100.00,O=C(CN1Cc2c(ccc(F)c2F)NC1=O)N[C@H](CO)c1ncc(F)cc1F [Compound B175]
0.08998,0.3872,0.06,O=C(CN1Cc2c(ccc(F)c2F)NC1=O)N[C@@H](CO)c1ncc(F)cc1F [Compound B176]
68.51,100,100.00,C[C@@H](NC(=O)CN1Cc2cc(F)ccc2NC1=O)c1ccc(F)cc1F [Compound B177]
3.38,100,3.48,COc1cnc([C@@H](C)NC(=O)CN2Cc3cc(F)ccc3NC2=O)c(F)c1 [Compound B178]
100,100,100.00,O=C(CN1Cc2cc(F)ccc2NC1=O)N[C@H](CO)c1ncc(F)cc1F [Compound B180]
1.159,100,2.28,Cc1cccnc1[C@@H](C)NC(=O)CN1Cc2c(ccc(F)c2F)NC1=O [Compound B182]
100,100,100.00,Cc1cccnc1[C@H](C)NC(=O)CN1Cc2c(ccc(F)c2F)NC1=O [Compound B183]
100,56.86,57.48,COc1cccnc1[C@@H](C)NC(=O)CN1Cc2c(ccc(F)c2F)NC1=O [Compound B184]

Rabbit Psoas IC25 [1] [µM],Porcine Ventricle IC25 [2] [µM],Porcine Atria IC25 (Porcine Atria myofibrils) [µM],SMILES
100,100,100.00,COc1cccnc1[C@H](C)NC(=O)CN1Cc2c(ccc(F)c2F)NC1=O [Compound B185]
100,100,100.00,COc1cccnc1[C@@H](C)NC(=O)CN1Cc2cc(F)ccc2NC1=O [Compound B186]
100,100,68.80,COc1cccnc1[C@H](C)NC(=O)CN1Cc2cc(F)ccc2NC1=O [Compound B187]
0.4649,1.834,0.42,C[C@@H](NC(=O)CN1Cc2c(ccc(F)c2F)NC1=O)c1ccc(C#N)cc1F [Compound B188]
9.504,50.31,17.83,C[C@@H](NC(=O)CN1Cc2c(ccc(F)c2F)NC1=O)c1ncc(F)cc1F [Compound B190]
100,100,100.00,Cc1cccnc1[C@@H](C)NC(=O)CN1Cc2cc(F)ccc2NC1=O [Compound B192]
41.67,40.61,28.17,Cc1cccnc1[C@H](C)NC(=O)CN1Cc2cc(F)ccc2NC1=O [Compound B193]
6.088,78.56,3.71,Cc1cnc([C@@H](C)NC(=O)CN2Cc3cc(F)ccc3NC2=O)c(F)c1 [Compound B194]
100,100,100.00,Cc1cnc([C@H](C)NC(=O)CN2Cc3cc(F)ccc3NC2=O)c(F)c1 [Compound B195]
100,100,100.00,C[C@@H](NC(=O)CN1Cc2cc(C#N)ccc2NC1=O)c1ncc(F)cc1F [Compound B196]
87.6,100,18.70,C[C@H](NC(=O)CN1Cc2cc(C#N)ccc2NC1=O)c1ncc(F)cc1F [Compound B197]
100,100,100.00,C[C@@H](NC(=O)CN1Cc2cc(F)ccc2NC1=O)c1ncc(C#N)cc1F [Compound B198]
18.61,100,25.98,C[C@H]1c2ccccc2NC(=O)N1CC(=O)N[C@@H](CO)c1ccc(F)cc1F [Compound B201]
0.1741,1.035,0.18,CC(NC(=O)CN1Cc2cc(F)ccc2NC1=O)c1ccccc1Br (stereo not drawn) [Compound B202]
14.19,23.26,5.48,C[C@@H](NC(=O)CN1Cc2cc(F)ccc2NC1=O)c1ccc(C#N)cc1 [Compound B203]
0.1501,1.393,0.27,C[C@H](NC(=O)CN1Cc2cc(F)ccc2NC1=O)c1ccc(C#N)cc1 [Compound B204]
6.054,16.29,2.07,C[C@@H](NC(=O)CN1Cc2cc(F)ccc2NC1=O)c1ccc(C#N)cc1F [Compound B205]
100,100,100.00,CC(C)C[C@@H](C(=O)N[C@@H](C)c1ccc(F)cc1F)N1Cc2cc(F)ccc2NC1=O [Compound B207]
100,100,100.00,CC(C)C[C@H](C(=O)N[C@@H](C)c1ccc(F)cc1F)N1Cc2cc(F)ccc2NC1=O [Compound B208]
100,100,12.15,Cc1ccc([C@@H](C)NC(=O)CN2Cc3cc(F)ccc3NC2=O)c(F)c1 [Compound B209]
0.1421,2.251,0.18,Cc1ccc([C@H](C)NC(=O)CN2Cc3cc(F)ccc3NC2=O)c(F)c1 [Compound B210]
100,100,100.00,C[C@@H](C(=O)N[C@H](CO)c1ccc(F)cc1F)N1Cc2c(Cl)cccc2NC1=O [Compound B211]
